Experimental data as given in patent US7691857B2, “Muscarinic agents as therapeutic compounds” (Muscagen Limited, priority 2003, dated 2010).

Molecular target: M1 receptor (Oryctolagus cuniculus, UniProt G1SR55)
Assay: Functional assay of M1 receptor activity, electrically stimulated rabbit vas deferens preparation
Description: M1 receptor activity of a compound of the invention may be examined with the rabbit vas deferens using a method developed from that described previously (Dorje F, Rettenmayr N, Mutschler E and Lambrecht G, Eur J Pharmacol 1991, 203, 417-420). The tissue is stimulated electrically to contract and the conditions are optimized so that M1 receptor agonists produce a concentration-related inhibition of contraction height. Any activity at M2 receptors is indicated by an increase in the contraction height. M2 receptor activity may also be recorded from increases in contraction of the guinea-pig paced left atria. M3 receptor activity is measured from the contraction of the guinea-pig ileum. […]
Initial evaluation of the test compound is by assay of functional tissue responses. This has the advantage that it readily discriminates between agonist, partial agonist and antagonist activity. […]
Male New Zealand white rabbits (1.47-3.4 Kg) are killed by a blow to the back of the head and vasa deferentia removed, dissected free of connective tissue and divided into prostatic and epididmyal portions. […] Isometric tension is recorded by computer at a sampling rate of 100 Hz, using Powerlab/200 (ADInstruments) software and MacLab bridge amplifiers. […]

Chain of M1 receptor (G1SR55 1-460): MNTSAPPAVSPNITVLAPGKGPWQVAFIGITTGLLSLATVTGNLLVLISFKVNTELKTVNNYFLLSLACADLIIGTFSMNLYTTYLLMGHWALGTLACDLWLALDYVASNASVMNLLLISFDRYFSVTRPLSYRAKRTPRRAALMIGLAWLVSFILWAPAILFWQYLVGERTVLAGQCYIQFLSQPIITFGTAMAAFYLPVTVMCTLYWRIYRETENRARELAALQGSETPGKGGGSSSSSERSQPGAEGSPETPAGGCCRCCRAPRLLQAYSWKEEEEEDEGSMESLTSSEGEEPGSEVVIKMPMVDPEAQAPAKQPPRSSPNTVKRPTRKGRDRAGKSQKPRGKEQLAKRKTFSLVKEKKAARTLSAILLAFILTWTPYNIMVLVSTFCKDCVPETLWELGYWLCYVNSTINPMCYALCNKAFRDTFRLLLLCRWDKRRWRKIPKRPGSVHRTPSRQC

In the case of COCC1CNCC2(C3CCC3)C1OC(=O)N2Cc1ccccc1 (centres unmarked) [Example 1, 3-Benzyl-3a-cyclobutyl-7-methoxymethyl-2-oxo-octahydro-oxazolo[4,5-c]pyridin-5-ium], the EC50 (M1 agonism, inhibition of twitch height in field-stimulated rabbit vas deferens, read-out: potency (EC50 value)) is reported as 100 nM and the “partial M1 agonist (extent of agonism)” value (rabbit vas deferens functional tissue response) is reported as 50%.
